Assays:
[1] = Binding affinity to 5HT1 receptor
[2] = target: Serotonin 2 (5-HT2) receptor (Homo sapiens, UniProt P41595+P28223+P28335); assay: Binding affinity to 5HT2 receptor; assay type: protein assay
D(2) dopamine receptor = D(2) dopamine receptor (Homo sapiens, UniProt P14416); assay: Binding affinity to dopamine receptor D2
[3] = target: T1, Adrenergic receptor alpha-1 (Homo sapiens, UniProt P35348+P25100+P35368); assay: Binding affinity to adrenergic alpha-1 receptor; assay type: protein assay
T1 sequence (P35348 whole entry): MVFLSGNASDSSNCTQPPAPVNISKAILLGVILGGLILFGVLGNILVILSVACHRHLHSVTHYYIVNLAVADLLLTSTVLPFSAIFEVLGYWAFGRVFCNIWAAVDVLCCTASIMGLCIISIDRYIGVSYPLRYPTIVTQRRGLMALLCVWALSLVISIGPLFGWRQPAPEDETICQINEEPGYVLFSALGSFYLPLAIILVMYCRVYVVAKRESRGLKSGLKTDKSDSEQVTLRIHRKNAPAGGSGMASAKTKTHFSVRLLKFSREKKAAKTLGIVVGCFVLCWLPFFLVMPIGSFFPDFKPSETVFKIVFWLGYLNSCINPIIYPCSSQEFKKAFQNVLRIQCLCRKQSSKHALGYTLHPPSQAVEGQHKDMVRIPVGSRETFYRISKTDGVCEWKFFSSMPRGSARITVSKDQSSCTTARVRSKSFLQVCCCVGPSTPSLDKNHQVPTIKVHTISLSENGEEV
T1 sequence (P25100 whole entry): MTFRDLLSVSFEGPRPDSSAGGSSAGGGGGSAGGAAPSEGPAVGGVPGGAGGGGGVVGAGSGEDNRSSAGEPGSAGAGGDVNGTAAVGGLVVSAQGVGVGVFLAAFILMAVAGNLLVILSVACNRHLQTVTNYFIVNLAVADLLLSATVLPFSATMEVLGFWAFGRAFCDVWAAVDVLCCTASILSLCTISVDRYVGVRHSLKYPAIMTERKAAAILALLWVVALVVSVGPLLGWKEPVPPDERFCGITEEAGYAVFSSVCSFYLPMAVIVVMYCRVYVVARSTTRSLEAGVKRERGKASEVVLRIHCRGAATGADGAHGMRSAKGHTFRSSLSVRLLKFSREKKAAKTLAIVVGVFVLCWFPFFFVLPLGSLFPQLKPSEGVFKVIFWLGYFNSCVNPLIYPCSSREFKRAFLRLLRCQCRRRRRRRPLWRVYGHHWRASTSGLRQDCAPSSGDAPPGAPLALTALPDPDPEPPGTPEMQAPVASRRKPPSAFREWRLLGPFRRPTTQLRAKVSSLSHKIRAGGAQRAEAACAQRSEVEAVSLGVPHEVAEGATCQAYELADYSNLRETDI
T1 sequence (P35368 whole entry): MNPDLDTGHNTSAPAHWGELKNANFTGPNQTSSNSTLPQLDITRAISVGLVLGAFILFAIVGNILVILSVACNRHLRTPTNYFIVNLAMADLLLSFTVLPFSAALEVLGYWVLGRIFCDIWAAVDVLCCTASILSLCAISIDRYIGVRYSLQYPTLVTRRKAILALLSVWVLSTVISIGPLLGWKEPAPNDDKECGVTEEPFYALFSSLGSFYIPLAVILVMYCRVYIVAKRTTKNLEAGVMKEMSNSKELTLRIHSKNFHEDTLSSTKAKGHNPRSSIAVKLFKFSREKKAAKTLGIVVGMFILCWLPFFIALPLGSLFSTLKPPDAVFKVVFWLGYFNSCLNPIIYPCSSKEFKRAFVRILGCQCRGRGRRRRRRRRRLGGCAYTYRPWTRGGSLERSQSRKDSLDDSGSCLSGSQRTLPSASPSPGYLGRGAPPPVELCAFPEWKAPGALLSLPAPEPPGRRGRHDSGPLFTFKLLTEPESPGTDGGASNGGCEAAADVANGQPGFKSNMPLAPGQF

[4] = target: T2, Adrenergic receptor alpha-2 (Homo sapiens, UniProt P08913+P18825+P18089); assay: Binding affinity to adrenergic alpha-2 receptor; assay type: protein assay
T2 sequence (P08913 whole entry): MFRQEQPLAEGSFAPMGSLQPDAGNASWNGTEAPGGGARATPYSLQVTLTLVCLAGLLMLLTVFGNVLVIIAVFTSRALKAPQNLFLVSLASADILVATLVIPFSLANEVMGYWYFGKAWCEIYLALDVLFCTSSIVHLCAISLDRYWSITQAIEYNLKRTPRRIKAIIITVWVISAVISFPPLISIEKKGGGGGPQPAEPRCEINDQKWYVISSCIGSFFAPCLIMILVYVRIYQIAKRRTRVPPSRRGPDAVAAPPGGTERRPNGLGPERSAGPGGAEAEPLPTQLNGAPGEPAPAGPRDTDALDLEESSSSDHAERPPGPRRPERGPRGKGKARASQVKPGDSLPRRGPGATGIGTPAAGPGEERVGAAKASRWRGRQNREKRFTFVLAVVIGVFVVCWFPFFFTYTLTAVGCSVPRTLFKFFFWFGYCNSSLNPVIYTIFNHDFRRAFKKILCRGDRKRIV
T2 sequence (P18825 whole entry): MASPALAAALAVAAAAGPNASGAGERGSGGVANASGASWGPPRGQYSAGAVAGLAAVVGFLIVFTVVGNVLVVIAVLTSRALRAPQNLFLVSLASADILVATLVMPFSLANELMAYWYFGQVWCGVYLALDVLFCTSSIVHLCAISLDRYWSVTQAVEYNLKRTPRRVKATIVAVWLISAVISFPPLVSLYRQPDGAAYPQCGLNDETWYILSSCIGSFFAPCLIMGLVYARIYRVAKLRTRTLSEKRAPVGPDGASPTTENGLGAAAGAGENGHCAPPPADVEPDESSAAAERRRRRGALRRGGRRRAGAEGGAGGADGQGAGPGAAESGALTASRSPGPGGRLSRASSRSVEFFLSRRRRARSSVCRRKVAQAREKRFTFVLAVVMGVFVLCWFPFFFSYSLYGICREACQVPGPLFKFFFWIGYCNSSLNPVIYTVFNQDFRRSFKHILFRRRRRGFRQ
T2 sequence (P18089 whole entry): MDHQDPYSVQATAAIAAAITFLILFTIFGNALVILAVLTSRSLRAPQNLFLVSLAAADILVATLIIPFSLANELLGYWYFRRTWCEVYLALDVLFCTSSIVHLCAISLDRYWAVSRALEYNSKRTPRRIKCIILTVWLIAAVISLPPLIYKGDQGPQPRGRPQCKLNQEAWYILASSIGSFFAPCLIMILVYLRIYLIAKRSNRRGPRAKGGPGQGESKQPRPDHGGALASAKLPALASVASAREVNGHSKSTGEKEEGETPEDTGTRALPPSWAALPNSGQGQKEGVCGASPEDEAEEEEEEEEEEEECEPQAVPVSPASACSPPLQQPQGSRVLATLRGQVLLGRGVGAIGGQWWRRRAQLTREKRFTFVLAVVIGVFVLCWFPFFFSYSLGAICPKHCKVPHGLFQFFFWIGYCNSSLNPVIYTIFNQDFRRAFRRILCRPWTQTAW

[5] = target: Beta-1 adrenergic receptor (Homo sapiens, UniProt P08588); assay: Binding affinity to adrenergic beta-1 receptor
Sequence of Beta-1 adrenergic receptor (P08588 whole entry): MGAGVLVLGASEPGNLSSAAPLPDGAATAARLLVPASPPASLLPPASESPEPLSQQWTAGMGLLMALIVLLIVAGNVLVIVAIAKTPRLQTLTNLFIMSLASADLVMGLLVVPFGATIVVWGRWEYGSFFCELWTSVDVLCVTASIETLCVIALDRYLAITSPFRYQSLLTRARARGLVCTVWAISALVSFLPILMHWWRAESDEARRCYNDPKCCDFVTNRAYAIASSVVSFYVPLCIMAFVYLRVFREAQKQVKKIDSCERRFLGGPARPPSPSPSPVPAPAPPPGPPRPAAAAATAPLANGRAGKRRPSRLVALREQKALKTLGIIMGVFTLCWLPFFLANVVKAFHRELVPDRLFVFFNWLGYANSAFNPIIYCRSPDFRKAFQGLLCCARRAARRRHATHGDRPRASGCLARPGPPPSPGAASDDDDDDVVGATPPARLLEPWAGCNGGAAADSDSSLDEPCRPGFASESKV

Measured: IC50

Sequence of D(2) dopamine receptor (P14416 whole entry): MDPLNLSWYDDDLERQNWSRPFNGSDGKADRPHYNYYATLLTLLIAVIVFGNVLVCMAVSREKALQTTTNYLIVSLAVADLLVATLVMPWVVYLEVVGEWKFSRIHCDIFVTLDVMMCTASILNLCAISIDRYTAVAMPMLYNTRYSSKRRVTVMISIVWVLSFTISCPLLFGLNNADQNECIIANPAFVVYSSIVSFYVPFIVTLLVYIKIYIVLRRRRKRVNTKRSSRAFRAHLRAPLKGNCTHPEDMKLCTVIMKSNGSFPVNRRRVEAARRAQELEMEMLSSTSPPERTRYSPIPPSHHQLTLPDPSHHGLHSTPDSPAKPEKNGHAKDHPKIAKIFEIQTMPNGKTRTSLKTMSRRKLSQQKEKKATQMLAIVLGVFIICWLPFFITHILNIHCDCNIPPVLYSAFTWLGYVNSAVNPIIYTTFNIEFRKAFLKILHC

COc1cc(N)c(Cl)cc1C(=O)NC[C@@H]1CCN2CCC[C@@H]12
> 10 µM: all assays above

O=C(NC[C@@H]1CCN2CCC[C@@H]12)c1cc(Cl)cn2ccnc12
> 10 µM: all assays above

COc1cc(N)c(Cl)cc1C(=O)N[C@@H]1C2CC3CN(C2)CC31 (stereo partly specified)
> 10 µM: all assays above

Cn1nc(C(=O)OC[C@@H]2CCN3CCC[C@@H]23)c2ccccc21 (single isomer, unassigned)
> 10 µM: all assays above

O=C(OC[C@@H]1CCN2CCC[C@@H]12)c1[nH]nc2ccccc12 (single isomer, unassigned)
> 10 µM: all assays above

O=C(OC[C@@H]1CCN2CCC[C@@H]12)c1c[nH]c2ccccc12
> 10 µM: all assays above
